Where “and” joins values, the source holds several entries; their conditions need not be identical. Identical values can stand only once. Like-named read-outs stand apart in the source and are kept apart here.
Assays:
Assay in all cases: SelectScreen kinase assay
WNK1 = WNK1 (Homo sapiens, UniProt Q9H4A3)
Procedure: (§1) Selectivity profiling assays were performed by the Invitrogen SelectScreen™ Services. […] The concentration of ATP was selected to be equal to the KM, unless indicated otherwise.

MASTL = MASTL (Homo sapiens, UniProt Q96GX5)
Procedure: as §1

ULK1 = target: T1, ULK1 (Homo sapiens, UniProt O75385)
T1 sequence (O75385 1-1050): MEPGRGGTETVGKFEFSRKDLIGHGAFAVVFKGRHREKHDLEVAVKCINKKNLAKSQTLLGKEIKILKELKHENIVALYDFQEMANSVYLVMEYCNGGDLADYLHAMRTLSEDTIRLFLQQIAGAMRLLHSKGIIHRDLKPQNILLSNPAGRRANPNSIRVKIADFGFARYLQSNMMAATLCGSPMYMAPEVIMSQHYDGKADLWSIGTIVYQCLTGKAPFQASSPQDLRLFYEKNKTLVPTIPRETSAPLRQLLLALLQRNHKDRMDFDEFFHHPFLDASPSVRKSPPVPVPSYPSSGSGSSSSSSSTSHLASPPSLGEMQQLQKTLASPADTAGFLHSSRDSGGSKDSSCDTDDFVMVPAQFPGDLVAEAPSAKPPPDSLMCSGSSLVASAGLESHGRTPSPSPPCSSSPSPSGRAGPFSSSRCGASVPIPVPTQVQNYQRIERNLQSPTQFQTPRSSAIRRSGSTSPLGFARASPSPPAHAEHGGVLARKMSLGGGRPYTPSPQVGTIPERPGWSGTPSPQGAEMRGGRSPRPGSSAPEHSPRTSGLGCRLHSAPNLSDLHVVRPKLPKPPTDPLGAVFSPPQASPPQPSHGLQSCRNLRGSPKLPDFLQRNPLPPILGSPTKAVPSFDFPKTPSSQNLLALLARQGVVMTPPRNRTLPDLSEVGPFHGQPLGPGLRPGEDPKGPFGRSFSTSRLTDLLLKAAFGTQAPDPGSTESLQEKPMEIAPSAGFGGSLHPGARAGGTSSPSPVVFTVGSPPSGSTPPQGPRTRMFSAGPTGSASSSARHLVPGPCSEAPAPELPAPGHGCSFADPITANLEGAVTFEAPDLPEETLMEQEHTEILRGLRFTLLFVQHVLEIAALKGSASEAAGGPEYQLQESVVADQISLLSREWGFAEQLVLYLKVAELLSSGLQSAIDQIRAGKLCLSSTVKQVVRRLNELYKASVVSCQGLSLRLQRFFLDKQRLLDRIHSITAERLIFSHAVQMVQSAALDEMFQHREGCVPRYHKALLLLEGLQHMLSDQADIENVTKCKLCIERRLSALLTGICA
Procedure: as §1

CAMK2B (CaMKII beta) = CAMK2B (CaMKII beta) (Homo sapiens, UniProt Q13554)
Sequence of CAMK2B (CaMKII beta) (Q13554 whole entry): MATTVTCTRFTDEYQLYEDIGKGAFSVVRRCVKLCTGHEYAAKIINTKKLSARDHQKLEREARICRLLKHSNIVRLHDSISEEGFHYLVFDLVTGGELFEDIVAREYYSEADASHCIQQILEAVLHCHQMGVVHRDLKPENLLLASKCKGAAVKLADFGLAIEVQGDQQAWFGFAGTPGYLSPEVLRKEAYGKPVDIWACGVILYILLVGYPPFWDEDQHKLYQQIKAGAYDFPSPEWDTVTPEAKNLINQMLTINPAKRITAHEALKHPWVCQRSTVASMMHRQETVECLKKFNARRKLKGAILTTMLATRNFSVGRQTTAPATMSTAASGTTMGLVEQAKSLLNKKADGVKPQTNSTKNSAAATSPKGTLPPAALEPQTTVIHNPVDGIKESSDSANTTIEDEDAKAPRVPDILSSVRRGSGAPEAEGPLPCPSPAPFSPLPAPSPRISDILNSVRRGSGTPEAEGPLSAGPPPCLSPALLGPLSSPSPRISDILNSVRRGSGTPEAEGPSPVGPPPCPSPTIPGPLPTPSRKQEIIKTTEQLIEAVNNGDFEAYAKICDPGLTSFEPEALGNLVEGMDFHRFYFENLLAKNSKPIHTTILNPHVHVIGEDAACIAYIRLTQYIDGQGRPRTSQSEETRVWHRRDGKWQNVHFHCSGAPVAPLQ
Procedure: as §1

PRKCD (PKC delta) = PRKCD (PKC delta) (Homo sapiens, UniProt Q05655); settings: 1 h, 1 μM WEL028, 1 h preincubation
Procedure: as §1

AKT2 (PKB beta) = AKT2 (PKB beta) (Homo sapiens, UniProt P31751); settings: for Inhibition at 1 µM (%): AKT2 (PKB beta), ZLYTE, ATP Km app
Sequence of AKT2 (PKB beta) (P31751 whole entry): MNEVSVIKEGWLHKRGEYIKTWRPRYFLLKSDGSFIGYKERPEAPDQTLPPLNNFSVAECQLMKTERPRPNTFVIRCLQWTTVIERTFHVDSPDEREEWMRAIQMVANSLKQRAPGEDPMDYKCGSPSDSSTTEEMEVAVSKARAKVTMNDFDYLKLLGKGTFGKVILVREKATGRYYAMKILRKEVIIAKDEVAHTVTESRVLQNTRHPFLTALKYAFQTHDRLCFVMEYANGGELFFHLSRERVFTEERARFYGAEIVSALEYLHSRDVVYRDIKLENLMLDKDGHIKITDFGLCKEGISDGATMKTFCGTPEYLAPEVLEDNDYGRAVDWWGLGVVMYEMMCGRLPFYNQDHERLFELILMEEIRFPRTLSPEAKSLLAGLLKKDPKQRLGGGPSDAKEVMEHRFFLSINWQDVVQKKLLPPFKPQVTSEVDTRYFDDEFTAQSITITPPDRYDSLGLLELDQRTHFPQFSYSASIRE
Procedure: as §1

LYN A = LYN A (Homo sapiens, UniProt P07948)
Sequence of LYN A (P07948 whole entry): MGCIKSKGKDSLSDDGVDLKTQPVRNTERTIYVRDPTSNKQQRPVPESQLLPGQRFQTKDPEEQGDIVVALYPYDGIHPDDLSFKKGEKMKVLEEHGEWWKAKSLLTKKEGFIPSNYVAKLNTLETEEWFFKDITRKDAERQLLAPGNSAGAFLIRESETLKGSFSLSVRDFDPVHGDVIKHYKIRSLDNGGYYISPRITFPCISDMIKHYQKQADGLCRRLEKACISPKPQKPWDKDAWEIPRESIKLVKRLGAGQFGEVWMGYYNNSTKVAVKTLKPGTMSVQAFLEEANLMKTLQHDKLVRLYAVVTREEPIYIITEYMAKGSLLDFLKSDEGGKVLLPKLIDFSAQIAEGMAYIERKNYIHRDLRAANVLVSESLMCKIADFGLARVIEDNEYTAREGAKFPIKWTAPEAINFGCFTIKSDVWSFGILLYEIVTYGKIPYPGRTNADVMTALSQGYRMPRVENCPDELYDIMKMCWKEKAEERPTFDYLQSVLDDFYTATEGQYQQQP
Procedure: as §1

EPHA7 = EPHA7 (Homo sapiens, UniProt Q15375); settings: 1 h, 1 μM WEL028, 1 h preincubation
Procedure: as §1

CDK4/cyclin D1 = CDK4/cyclin D1 (Homo sapiens, UniProt P11802); settings: for Inhibition at 1 µM (%): CDK4/cyclin D1, Adapta, ATP 10
Sequence of CDK4/cyclin D1 (P11802 whole entry): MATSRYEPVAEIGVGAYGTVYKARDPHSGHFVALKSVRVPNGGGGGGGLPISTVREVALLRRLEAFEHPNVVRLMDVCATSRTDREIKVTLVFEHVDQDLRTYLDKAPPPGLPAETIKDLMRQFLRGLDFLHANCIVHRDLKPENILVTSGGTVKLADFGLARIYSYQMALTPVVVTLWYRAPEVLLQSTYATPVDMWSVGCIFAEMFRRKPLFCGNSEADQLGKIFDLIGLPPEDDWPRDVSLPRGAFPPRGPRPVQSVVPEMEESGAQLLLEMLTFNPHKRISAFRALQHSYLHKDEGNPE
Sequence of CDK4/cyclin D1 (P24385 whole entry partner): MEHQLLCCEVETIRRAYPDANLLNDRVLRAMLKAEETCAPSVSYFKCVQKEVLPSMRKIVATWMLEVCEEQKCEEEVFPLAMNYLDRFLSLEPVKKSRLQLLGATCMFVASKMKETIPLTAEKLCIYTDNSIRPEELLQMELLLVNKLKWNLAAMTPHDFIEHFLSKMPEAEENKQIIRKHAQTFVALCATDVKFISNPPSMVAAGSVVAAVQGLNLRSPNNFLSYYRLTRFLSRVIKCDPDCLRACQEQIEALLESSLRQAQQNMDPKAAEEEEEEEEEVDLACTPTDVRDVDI
Procedure: as §1

CAMK1D (CaMKI delta) = CAMK1D (CaMKI delta) (Homo sapiens, UniProt Q8IU85)
Procedure: as §1

ITK = target: T2, ITK (Homo sapiens, UniProt Q08881); settings: for Inhibition at 1 µM (%): ITK, ZLYTE, ATP Km app
T2 sequence (Q08881 1-620): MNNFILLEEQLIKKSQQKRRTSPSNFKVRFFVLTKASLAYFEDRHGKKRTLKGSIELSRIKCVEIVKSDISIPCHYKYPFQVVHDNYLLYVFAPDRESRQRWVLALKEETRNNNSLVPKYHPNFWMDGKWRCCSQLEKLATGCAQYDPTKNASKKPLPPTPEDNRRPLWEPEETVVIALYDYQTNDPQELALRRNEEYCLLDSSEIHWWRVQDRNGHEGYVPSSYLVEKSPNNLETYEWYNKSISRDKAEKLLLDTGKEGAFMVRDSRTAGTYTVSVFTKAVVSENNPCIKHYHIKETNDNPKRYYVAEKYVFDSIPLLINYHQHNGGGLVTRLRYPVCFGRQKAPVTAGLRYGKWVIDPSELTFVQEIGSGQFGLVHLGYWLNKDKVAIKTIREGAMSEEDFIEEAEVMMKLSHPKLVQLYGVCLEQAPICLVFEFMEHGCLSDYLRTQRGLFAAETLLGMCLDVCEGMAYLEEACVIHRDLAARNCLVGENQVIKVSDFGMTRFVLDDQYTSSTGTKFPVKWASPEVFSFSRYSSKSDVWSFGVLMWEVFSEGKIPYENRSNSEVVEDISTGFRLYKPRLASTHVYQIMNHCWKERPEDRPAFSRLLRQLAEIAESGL
Procedure: as §1

EPHA2 = EPHA2 (Homo sapiens, UniProt P29317)
Sequence of EPHA2 (P29317 24-976): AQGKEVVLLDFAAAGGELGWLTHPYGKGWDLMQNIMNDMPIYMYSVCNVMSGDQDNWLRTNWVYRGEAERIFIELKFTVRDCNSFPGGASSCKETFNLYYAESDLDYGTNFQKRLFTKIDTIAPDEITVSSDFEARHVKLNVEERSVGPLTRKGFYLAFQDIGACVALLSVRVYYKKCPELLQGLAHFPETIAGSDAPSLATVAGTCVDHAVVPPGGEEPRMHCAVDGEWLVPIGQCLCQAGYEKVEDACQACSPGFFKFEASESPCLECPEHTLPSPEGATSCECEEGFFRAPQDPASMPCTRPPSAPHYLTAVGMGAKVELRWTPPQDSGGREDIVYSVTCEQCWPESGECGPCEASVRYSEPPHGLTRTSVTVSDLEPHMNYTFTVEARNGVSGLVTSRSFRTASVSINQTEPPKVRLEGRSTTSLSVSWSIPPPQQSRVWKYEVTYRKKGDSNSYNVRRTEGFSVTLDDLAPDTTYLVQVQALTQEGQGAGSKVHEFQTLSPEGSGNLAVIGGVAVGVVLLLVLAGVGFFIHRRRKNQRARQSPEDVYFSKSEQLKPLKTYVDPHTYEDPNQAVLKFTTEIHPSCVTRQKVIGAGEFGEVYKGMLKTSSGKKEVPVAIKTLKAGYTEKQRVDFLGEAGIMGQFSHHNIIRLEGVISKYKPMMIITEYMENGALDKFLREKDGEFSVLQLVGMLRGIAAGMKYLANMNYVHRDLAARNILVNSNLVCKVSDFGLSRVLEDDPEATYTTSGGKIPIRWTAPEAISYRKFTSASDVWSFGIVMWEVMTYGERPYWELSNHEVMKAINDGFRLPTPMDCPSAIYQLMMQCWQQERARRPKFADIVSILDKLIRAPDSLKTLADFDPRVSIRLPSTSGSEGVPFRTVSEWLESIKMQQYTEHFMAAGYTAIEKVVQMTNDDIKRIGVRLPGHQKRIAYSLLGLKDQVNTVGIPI
Procedure: as §1

PRKG1 = PRKG1 (Homo sapiens, UniProt Q13976)
Sequence of PRKG1 (Q13976 whole entry): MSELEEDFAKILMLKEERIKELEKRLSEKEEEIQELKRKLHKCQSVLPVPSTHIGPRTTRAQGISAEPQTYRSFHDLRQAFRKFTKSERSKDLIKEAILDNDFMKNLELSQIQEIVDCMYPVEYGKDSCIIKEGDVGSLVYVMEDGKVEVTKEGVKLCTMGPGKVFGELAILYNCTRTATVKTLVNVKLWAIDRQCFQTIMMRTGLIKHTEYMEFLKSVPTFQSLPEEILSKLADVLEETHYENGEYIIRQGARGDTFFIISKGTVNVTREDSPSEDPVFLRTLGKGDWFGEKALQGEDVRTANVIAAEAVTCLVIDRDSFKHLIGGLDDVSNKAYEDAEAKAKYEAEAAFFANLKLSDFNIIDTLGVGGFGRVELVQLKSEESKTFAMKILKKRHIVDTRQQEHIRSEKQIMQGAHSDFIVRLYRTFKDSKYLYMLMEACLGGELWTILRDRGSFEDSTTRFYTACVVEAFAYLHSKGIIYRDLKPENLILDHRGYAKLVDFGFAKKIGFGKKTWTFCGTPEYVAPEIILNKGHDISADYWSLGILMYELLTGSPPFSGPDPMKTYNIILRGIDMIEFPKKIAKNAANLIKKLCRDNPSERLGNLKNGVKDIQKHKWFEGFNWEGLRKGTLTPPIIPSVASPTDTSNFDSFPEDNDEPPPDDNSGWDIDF
Procedure: as §1

[1] = 1 h, 1 μM WEL028, 1 h preincubation

Sequence of MASTL (Q96GX5 whole entry): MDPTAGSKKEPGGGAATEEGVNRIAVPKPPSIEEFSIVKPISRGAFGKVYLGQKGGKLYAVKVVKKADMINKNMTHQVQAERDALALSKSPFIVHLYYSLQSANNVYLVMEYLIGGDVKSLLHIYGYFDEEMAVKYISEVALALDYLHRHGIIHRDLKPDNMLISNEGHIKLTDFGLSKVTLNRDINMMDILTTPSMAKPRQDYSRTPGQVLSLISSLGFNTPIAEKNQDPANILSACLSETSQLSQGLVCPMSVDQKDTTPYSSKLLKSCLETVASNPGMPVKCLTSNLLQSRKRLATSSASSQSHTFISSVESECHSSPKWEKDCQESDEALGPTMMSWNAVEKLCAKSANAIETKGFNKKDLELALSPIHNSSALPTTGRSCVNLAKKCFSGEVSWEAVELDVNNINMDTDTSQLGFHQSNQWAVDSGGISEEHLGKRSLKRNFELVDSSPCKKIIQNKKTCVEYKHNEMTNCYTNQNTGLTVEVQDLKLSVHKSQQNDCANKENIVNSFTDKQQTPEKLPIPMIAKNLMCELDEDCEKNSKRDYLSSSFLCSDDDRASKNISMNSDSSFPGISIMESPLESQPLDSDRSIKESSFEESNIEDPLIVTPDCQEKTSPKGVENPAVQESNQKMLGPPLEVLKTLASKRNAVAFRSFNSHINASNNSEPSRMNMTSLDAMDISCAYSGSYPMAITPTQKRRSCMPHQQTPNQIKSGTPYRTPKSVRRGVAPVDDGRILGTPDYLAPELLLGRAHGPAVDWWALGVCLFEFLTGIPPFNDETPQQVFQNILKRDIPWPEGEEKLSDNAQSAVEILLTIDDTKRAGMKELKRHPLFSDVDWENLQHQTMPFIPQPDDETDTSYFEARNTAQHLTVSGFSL

`C#CCOc1ccc(Nc2ncc(Cl)c(Nc3ccccc3NC(=O)C=C)n2)c(OC)c1` [Compound 6] was tested, and the “Inhibition (%)” value (WNK1; 1 μM WEL028, 1 h preincubation) was 5%, the “Inhibition at 1 µM (%)” value (WNK1; 1 µM, LanthaScreen Binding) was 11% and the “Inhibition (%)” value (MASTL; 1 μM WEL028, 1 h preincubation) was 3%. For the same molecule, the “Inhibition at 1 µM (%)” value (MASTL; MASTL, 1 µM, LanthaScreen Binding, listed as WEL028, 1 µM) was 6% and 0%, the “Inhibition (%)” value (ULK1; 1 μM WEL028, 1 h preincubation) was 4% and the “Inhibition at 1 µM (%)” value (ULK1; 1 µM, LanthaScreen Binding, listed as WEL028, 1 µM) was 4%. The inhibition at 1 µM (ULK1; read-out: Inhibition at 1 µM (%), 1 µM, LanthaScreen Binding) was 5%, the inhibition at 1 µM (CAMK2B (CaMKII beta); [1]) was 0% and the “Inhibition at 1 µM (%)” value (CAMK2B (CaMKII beta); CAMK2B (CaMKII beta), 1 µM, ZLYTE, ATP Km app, listed as WEL028, 1 µM) was -1% and 1%. For the same molecule, the inhibition at 1 µM (PRKCD (PKC delta)) was 14%, the inhibition at 1 µM (AKT2 (PKB beta); [1]) was -1% and the “Inhibition at 1 µM (%)” value (AKT2 (PKB beta)) was -2%. The “Inhibition at 1 µM (%)” value (AKT2 (PKB beta); listed as WEL028, 1 µM) was 0%, the inhibition at 1 µM (LYN A; [1]) was 5% and the “Inhibition at 1 µM (%)” value (LYN A; LYN A, 1 µM, ZLYTE, ATP Km app, listed as WEL028, 1 µM) was 6%. For the same molecule, the inhibition at 1 µM (LYN A; read-out: Inhibition at 1 µM (%), LYN A, 1 µM, ZLYTE, ATP Km app) was 5%, the inhibition at 1 µM (EPHA7) was 4% and the inhibition at 1 µM (CDK4/cyclin D1; [1]) was -10%. For the same molecule, the “Inhibition at 1 µM (%)” value (CDK4/cyclin D1) was -14%, the “Inhibition at 1 µM (%)” value (CDK4/cyclin D1; listed as WEL028, 1 µM) was -6% and the inhibition at 1 µM (CAMK1D (CaMKI delta); [1]) was 6%. The inhibition at 1 µM (CAMK1D (CaMKI delta); read-out: Inhibition at 1 µM (%), CAMK1D (CaMKI delta), 1 µM, ZLYTE, ATP Km app) was 5%, the “Inhibition (%)” value (ITK; 1 μM WEL028, 1 h preincubation) was -7% and the “Inhibition at 1 µM (%)” value (ITK) was -3%. For the same molecule, the “Inhibition at 1 µM (%)” value (ITK; listed as WEL028, 1 µM) was -10%, the inhibition at 1 µM (EPHA2; [1]) was 7% and the “Inhibition at 1 µM (%)” value (EPHA2; EPHA2, 1 µM, ZLYTE, ATP Km app) was 13%. The “Inhibition at 1 µM (%)” value (PRKG1; 1 µM, ZLYTE, ATP Km app, listed as WEL028, 1 µM) was -6% and 0% and the inhibition at 1 µM (PRKG1; [1]) was -3%.
